# Species on record: Rattus norvegicus
# Experiment: Open TG-GATES - Regimen: Daily Repeat
# Type: toxicity, organism-based, Sprague-Dawley
# Design: regimen Daily Repeat, gender Male, age 6 weeks
# Settings: in vivo, iv, route intravenous injection; for Bas / Eos / Fbg / Ht / Lym / MCH / MCHC / MCV / Mono / PT / RBC / Ret / WBC: tissue Blood; for KIDNEY_L / KIDNEY_R / KIDNEY_TOTAL: tissue Kidney; for ALP / AST / CRE / DBIL / GLC / IP / K / Na / PL / RALB / TBIL / TG / TP / gamma-GTP / TC: tissue Plasma
# [1] = 0 mg/kg, 72 h, dose level Control, time 3 day
# [2] = 0 mg/kg, […], dose level Control, time 7 day
# [3] = 0 mg/kg, […], dose level Control, time 14 day
# [4] = 0 mg/kg, […], dose level Control, time 28 day
# [5] = 1 mg/kg, 72 h, dose level High, time 3 day
# [6] = 1 mg/kg, […], dose level High, time 7 day
# [7] = 1 mg/kg, […], dose level High, time 14 day
# [8] = 1 mg/kg, […], dose level High, time 28 day
compound,measurement,setting,value
COc1cccc2c1C(=O)c1c(O)c3c(c(O)c1C2=O)C[C@@](O)(C(=O)CO)C[C@@H]3O[C@H]1C[C@H](N)[C@H](O)[C@H](C)O1 [DOXORUBICIN],TERMINAL_BW,[1],230.2 g
same,Bas,[1],0%
same,Eos,[1],0.8%
same,Fbg,[1],276.4 mg/dL
same,Ht,[1],37.6%
same,Lym,[1],80%
same,MCH,[1],21.3 pg
same,MCHC,[1],34.2%
same,MCV,[1],62.3 fL
same,Mono,[1],2.8%
same,PT,[1],16.3 s
same,RBC,[1],603.8 x10_4/ul
same,Ret,[1],5.8%
same,WBC,[1],107.3 x10_2/uL
same,KIDNEY_L,[1],1 g
same,KIDNEY_R,[1],1 g
same,KIDNEY_TOTAL,[1],2 g
same,ALP,[1],1504.4 IU/L
same,AST,[1],70.6 IU/L
same,CRE,[1],0.2 mg/dL
same,DBIL,[1],0.002 mg/dL
same,GLC,[1],193.8 mg/dL
same,IP,[1],6.9 mg/dL
same,K,[1],4.8 meq/L
same,Na,[1],141 meq/L
same,PL,[1],141 mg/dL
same,RALB,[1],3 g/dL
same,TBIL,[1],0.006 mg/dL
same,TG,[1],86.6 mg/dL
same,TP,[1],5.4 g/dL
same,gamma-GTP,[1],1.4 IU/L
same,TERMINAL_BW,[2],251.1 g
same,TERMINAL_BW,[3],307.3 g
same,TERMINAL_BW,[4],382.5 g
same,Bas,[2],0%
same,Eos,[2],0.6%
same,Fbg,[2],285.8 mg/dL
same,Ht,[2],38.4%
same,Lym,[2],77.4%
same,MCH,[2],20.8 pg
same,MCHC,[2],35.3%
same,MCV,[2],58.9 fL
same,Mono,[2],2.8%
same,PT,[2],16.5 s
same,RBC,[2],652.8 x10_4/ul
same,Ret,[2],5.5%
same,WBC,[2],121 x10_2/uL
same,Bas,[3],0%
same,Eos,[3],0.8%
same,Fbg,[3],305.6 mg/dL
same,Ht,[3],39.4%
same,Lym,[3],82.2%
same,MCH,[3],20.5 pg
same,MCHC,[3],35.8%
same,MCV,[3],57 fL
same,Mono,[3],2.2%
same,PT,[3],16.1 s
same,RBC,[3],691.8 x10_4/ul
same,Ret,[3],4.8%
same,WBC,[3],124.7 x10_2/uL
same,Bas,[4],0%
same,Eos,[4],1.4%
same,Fbg,[4],305.6 mg/dL
same,Ht,[4],42.7%
same,Lym,[4],85.6%
same,MCH,[4],19.6 pg
same,MCHC,[4],36.3%
same,MCV,[4],54 fL
same,Mono,[4],2%
same,PT,[4],16.4 s
same,RBC,[4],792.2 x10_4/ul
same,Ret,[4],2.9%
same,WBC,[4],144.2 x10_2/uL
same,KIDNEY_L,[2],1.1 g
same,KIDNEY_R,[2],1.1 g
same,KIDNEY_TOTAL,[2],2.2 g
same,KIDNEY_L,[3],1.2 g
same,KIDNEY_R,[3],1.2 g
same,KIDNEY_TOTAL,[3],2.3 g
same,KIDNEY_L,[4],1.4 g
same,KIDNEY_R,[4],1.4 g
same,KIDNEY_TOTAL,[4],2.7 g
same,ALP,[2],1305.8 IU/L
same,AST,[2],67 IU/L
same,CRE,[2],0.2 mg/dL
same,DBIL,[2],0 mg/dL
same,GLC,[2],188.2 mg/dL
same,IP,[2],7.2 mg/dL
same,K,[2],4.5 meq/L
same,Na,[2],142.2 meq/L
same,RALB,[2],2.9 g/dL
same,TBIL,[2],0.014 mg/dL
same,TC,[2],74.4 mg/dL
same,TG,[2],100.2 mg/dL
same,TP,[2],5.3 g/dL
same,gamma-GTP,[2],1.2 IU/L
same,ALP,[3],1239.2 IU/L
same,AST,[3],59.2 IU/L
same,CRE,[3],0.2 mg/dL
same,DBIL,[3],0 mg/dL
same,GLC,[3],203 mg/dL
same,IP,[3],6.9 mg/dL
same,K,[3],4.4 meq/L
same,Na,[3],140.8 meq/L
same,RALB,[3],3.1 g/dL
same,TBIL,[3],0.018 mg/dL
same,TC,[3],69 mg/dL
same,TG,[3],129.2 mg/dL
same,TP,[3],5.7 g/dL
same,gamma-GTP,[3],2.6 IU/L
same,ALP,[4],795.8 IU/L
same,AST,[4],64.8 IU/L
same,CRE,[4],0.3 mg/dL
same,DBIL,[4],0 mg/dL
same,GLC,[4],186.6 mg/dL
same,IP,[4],6.7 mg/dL
same,K,[4],4.1 meq/L
same,Na,[4],140.6 meq/L
same,PL,[4],130.8 mg/dL
same,RALB,[4],3.1 g/dL
same,TBIL,[4],0.006 mg/dL
same,TC,[4],65 mg/dL
same,TG,[4],96.2 mg/dL
same,TP,[4],6.1 g/dL
same,gamma-GTP,[4],1 IU/L
same,TERMINAL_BW,[5],213.7 g
same,Bas,[5],0%
same,Eos,[5],1%
same,Fbg,[5],293 mg/dL
same,Ht,[5],37.6%
same,Lym,[5],83.6%
same,MCH,[5],21.4 pg
same,MCHC,[5],35%
same,MCV,[5],61.1 fL
same,Mono,[5],2.4%
same,PT,[5],16.3 s
same,RBC,[5],616 x10_4/ul
same,Ret,[5],1%
same,WBC,[5],40.5 x10_2/uL
same,KIDNEY_L,[5],0.9 g
same,KIDNEY_R,[5],0.9 g
same,KIDNEY_TOTAL,[5],1.8 g
same,ALP,[5],1562.4 IU/L
same,AST,[5],64.4 IU/L
same,CRE,[5],0.2 mg/dL
same,DBIL,[5],0 mg/dL
same,GLC,[5],194.4 mg/dL
same,IP,[5],7 mg/dL
same,K,[5],4.3 meq/L
same,Na,[5],141.4 meq/L
same,RALB,[5],3.1 g/dL
same,TBIL,[5],0.014 mg/dL
same,TC,[5],79 mg/dL
same,TG,[5],78.2 mg/dL
same,TP,[5],5.6 g/dL
same,gamma-GTP,[5],1.4 IU/L
same,TERMINAL_BW,[6],236 g
same,TERMINAL_BW,[7],244.4 g
same,TERMINAL_BW,[8],221.9 g
same,Bas,[6],0%
same,Eos,[6],1.4%
same,Fbg,[6],307.2 mg/dL
same,Ht,[6],34.1%
same,Lym,[6],84.2%
same,MCH,[6],20.5 pg
same,MCHC,[6],36.1%
same,MCV,[6],56.8 fL
same,Mono,[6],2.4%
same,PT,[6],16.1 s
same,RBC,[6],600.6 x10_4/ul
same,Ret,[6],0.06%
same,WBC,[6],32.9 x10_2/uL
same,Bas,[7],0%
same,Eos,[7],0.4%
same,Fbg,[7],315.6 mg/dL
same,Ht,[7],31.5%
same,Lym,[7],76.8%
same,MCH,[7],20.6 pg
same,MCHC,[7],37.1%
same,MCV,[7],55.7 fL
same,Mono,[7],1%
same,RBC,[7],566.8 x10_4/ul
same,Ret,[7],0.04%
same,WBC,[7],14.2 x10_2/uL
same,Bas,[8],0%
same,Eos,[8],0.5%
same,Fbg,[8],669 mg/dL
same,Lym,[8],31.5%
same,MCH,[8],18.1 pg
same,MCHC,[8],38%
same,MCV,[8],47.6 fL
same,Mono,[8],8%
same,PT,[8],15.1 s
same,RBC,[8],301.5 x10_4/ul
same,Ret,[8],0.2%
same,WBC,[8],44.9 x10_2/uL
same,KIDNEY_L,[6],1 g
same,KIDNEY_R,[6],1 g
same,KIDNEY_TOTAL,[6],2 g
same,KIDNEY_L,[7],1 g
same,KIDNEY_R,[7],1 g
same,KIDNEY_TOTAL,[7],2 g
same,KIDNEY_L,[8],1.4 g
same,KIDNEY_R,[8],1.4 g
same,KIDNEY_TOTAL,[8],2.8 g
same,ALP,[6],963 IU/L
same,AST,[6],66.6 IU/L
same,CRE,[6],0.2 mg/dL
same,DBIL,[6],0 mg/dL
same,GLC,[6],199.6 mg/dL
same,IP,[6],7.3 mg/dL
same,K,[6],4.5 meq/L
same,Na,[6],142.8 meq/L
same,PL,[6],170.4 mg/dL
same,RALB,[6],3 g/dL
same,TBIL,[6],0.018 mg/dL
same,TC,[6],88.8 mg/dL
same,TG,[6],110.2 mg/dL
same,TP,[6],5.6 g/dL
same,gamma-GTP,[6],1.6 IU/L
same,ALP,[7],635.6 IU/L
same,AST,[7],56.4 IU/L
same,CRE,[7],0.2 mg/dL
same,DBIL,[7],0.002 mg/dL
same,GLC,[7],200.8 mg/dL
same,K,[7],4.1 meq/L
same,Na,[7],142 meq/L
same,RALB,[7],2.9 g/dL
same,TBIL,[7],0.032 mg/dL
same,TC,[7],90.8 mg/dL
same,TG,[7],110.4 mg/dL
same,TP,[7],5.4 g/dL
same,gamma-GTP,[7],1.4 IU/L
same,ALP,[8],339 IU/L
same,AST,[8],39.5 IU/L
same,CRE,[8],0.2 mg/dL
same,DBIL,[8],0 mg/dL
same,GLC,[8],197 mg/dL
same,IP,[8],5.6 mg/dL
same,K,[8],3.9 meq/L
same,Na,[8],141.5 meq/L
same,PL,[8],357.5 mg/dL
same,RALB,[8],1.6 g/dL
same,TBIL,[8],0 mg/dL
same,TC,[8],233 mg/dL
same,TG,[8],309 mg/dL
same,TP,[8],4.5 g/dL
same,gamma-GTP,[8],14.5 IU/L

# Source: ChEMBL document CHEMBL3885861, “Open TG-GATES”
